Active and inactive are the calls of the source. No cut-off for these calls is given here. Bridge positions count the residues as written; N and C are the ends. Square brackets hold non-standard residues; d marks the D form. Peptide text beside a SMILES is read from it. d2Nal = N[C@H](Cc1ccc2ccccc2c1)C(=O)O; Ac6c = NC1(C(=O)O)CCCCC1; Ac5c = NC1(C(=O)O)CCCC1; Ac4c = NC1(C(=O)O)CCC1; Aib = CC(C)(N)C(=O)O
Tests used:
[1] = target: T1, Melanocyte-stimulating hormone receptor (Homo sapiens, UniProt Q01726); assay: Displacement of [125I]-NDP-alpha-MSH from human MC1R expressed in HEK293 cells after 40 mins by gamma counting method; format: cell-based
Target sequence in this assay (Q01726 whole entry): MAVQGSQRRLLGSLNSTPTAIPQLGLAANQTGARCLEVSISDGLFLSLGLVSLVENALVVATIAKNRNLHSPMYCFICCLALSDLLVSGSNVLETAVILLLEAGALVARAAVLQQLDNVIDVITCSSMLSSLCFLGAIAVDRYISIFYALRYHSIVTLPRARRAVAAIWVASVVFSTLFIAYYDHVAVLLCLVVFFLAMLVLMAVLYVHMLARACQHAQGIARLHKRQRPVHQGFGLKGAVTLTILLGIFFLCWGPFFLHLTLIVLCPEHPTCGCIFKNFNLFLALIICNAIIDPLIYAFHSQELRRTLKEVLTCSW

[2] = target: T1, Melanocyte-stimulating hormone receptor; assay: Agonist activity at human MC1R expressed in HEK293 cells assessed as induction of intracellular cAMP accumulation measured after 3 mins; format: functional, cell-based
Target sequence in this assay (Q01726 whole entry): as above

Melanocortin receptor 3 [3] = target: T2, Melanocortin receptor 3 (Homo sapiens, UniProt P41968); assay: Displacement of [125I]-NDP-alpha-MSH from human MC3R expressed in HEK293 cells after 40 mins by gamma counting method; format: cell-based
T2 sequence (P41968 whole entry): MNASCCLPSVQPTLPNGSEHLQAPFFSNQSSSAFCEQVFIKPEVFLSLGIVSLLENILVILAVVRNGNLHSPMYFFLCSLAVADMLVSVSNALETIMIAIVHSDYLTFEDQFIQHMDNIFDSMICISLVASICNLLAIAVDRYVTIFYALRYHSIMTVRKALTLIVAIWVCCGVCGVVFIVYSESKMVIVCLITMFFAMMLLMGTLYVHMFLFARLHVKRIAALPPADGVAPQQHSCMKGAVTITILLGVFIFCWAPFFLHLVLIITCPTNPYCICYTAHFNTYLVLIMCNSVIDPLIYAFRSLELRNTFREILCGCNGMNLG

Melanocortin receptor 3 [4] = target: T2, Melanocortin receptor 3; assay: Agonist activity at human MC3R expressed in HEK293 cells assessed as induction of intracellular cAMP accumulation after 3 mins; format: functional, cell-based
Melanocortin receptor 3 [5] = target: T2, Melanocortin receptor 3; assay: Agonist activity at human MC3R expressed in HEK293 cells assessed as induction of intracellular cAMP accumulation at 10 uM after 3 mins relative to MT-2; format: functional, cell-based
Melanocortin receptor 4 [6] = target: T3, Melanocortin receptor 4 (Homo sapiens, UniProt P32245); assay: Displacement of [125I]-NDP-alpha-MSH from human MC4R expressed in HEK293 cells after 40 mins by gamma counting method; format: cell-based
T3 sequence (P32245 whole entry): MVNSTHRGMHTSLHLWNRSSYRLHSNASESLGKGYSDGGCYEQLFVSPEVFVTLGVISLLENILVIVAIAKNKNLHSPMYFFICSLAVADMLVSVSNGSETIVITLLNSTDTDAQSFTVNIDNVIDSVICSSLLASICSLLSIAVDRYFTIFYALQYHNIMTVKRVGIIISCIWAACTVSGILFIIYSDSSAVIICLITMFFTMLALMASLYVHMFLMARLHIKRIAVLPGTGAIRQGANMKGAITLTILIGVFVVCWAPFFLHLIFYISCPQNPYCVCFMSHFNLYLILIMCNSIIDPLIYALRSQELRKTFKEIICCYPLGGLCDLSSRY

Melanocortin receptor 4 [7] = target: T3, Melanocortin receptor 4; assay: Agonist activity at human MC4R expressed in HEK293 cells assessed as induction of intracellular cAMP accumulation after 3 mins; format: functional, cell-based
Melanocortin receptor 4 [8] = target: T3, Melanocortin receptor 4; assay: Agonist activity at human MC4R expressed in HEK293 cells assessed as induction of intracellular cAMP accumulation at 10 uM after 3 mins relative to MT-2; format: functional, cell-based
Melanocortin receptor 5 [9] = target: T4, Melanocortin receptor 5 (Homo sapiens, UniProt P33032); assay: Displacement of [125I]-NDP-alpha-MSH from human MC5R expressed in HEK293 cells after 40 mins by gamma counting method; format: cell-based
T4 sequence (P33032 whole entry): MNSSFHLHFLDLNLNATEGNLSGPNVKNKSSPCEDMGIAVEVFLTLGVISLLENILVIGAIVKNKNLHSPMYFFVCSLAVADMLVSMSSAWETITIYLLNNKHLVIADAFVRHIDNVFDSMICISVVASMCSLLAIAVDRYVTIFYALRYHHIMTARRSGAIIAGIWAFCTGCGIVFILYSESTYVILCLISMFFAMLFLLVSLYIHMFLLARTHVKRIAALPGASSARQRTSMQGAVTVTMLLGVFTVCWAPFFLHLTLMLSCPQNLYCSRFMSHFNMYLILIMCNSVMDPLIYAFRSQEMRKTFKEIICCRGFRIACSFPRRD

Melanocortin receptor 5 [10] = target: T4, Melanocortin receptor 5; assay: Agonist activity at human MC5R expressed in HEK293 cells assessed as induction of intracellular cAMP accumulation after 3 mins; format: functional, cell-based
Melanocortin receptor 5 [11] = target: T4, Melanocortin receptor 5; assay: Agonist activity at human MC5R expressed in HEK293 cells assessed as induction of intracellular cAMP accumulation at 10 uM after 3 mins relative to MT-2; format: functional, cell-based
[12] = target: T1, Melanocyte-stimulating hormone receptor; assay: Agonist activity at human MC1R expressed in HEK293 cells assessed as induction of intracellular cAMP accumulation at 10 uM measured after 3 mins relative to MT-2; format: functional, cell-based
Target sequence in this assay (Q01726 whole entry, looked up): as the sequence (Q01726 whole entry) above

Homo sapiens [13] = species on record: Homo sapiens; assay: Selectivity ratio of IC50 for human MC1R to IC50 for human MC3R
Homo sapiens [14] = species on record: Homo sapiens; assay: Selectivity ratio of IC50 for human MC5R to IC50 for human MC3R
Melanocortin receptor 5 [15] = target: T4, Melanocortin receptor 5; assay: Displacement of [125I]-NDP-alpha-MSH from human MC5R expressed in HEK293 cells at 10 uM after 40 mins by gamma counting method; format: cell-based

SMILES	IC50 [1]	EC50 [2]	IC50 (Melanocortin receptor 3 [3])	EC50 (Melanocortin receptor 3 [4]; read-out: EC50)	max activation (Melanocortin receptor 3 [5])	IC50 (Melanocortin receptor 4 [6])	EC50 (Melanocortin receptor 4 [7]; read-out: EC50)	max activation (Melanocortin receptor 4 [8])	IC50 (Melanocortin receptor 5 [9])	EC50 (Melanocortin receptor 5 [10]; read-out: EC50)	max activation (Melanocortin receptor 5 [11])	max activation [12]	EC50 (Melanocortin receptor 5 [10]; hek293)	EC50 (Melanocortin receptor 3 [4]; hek293)	EC50 (Melanocortin receptor 4 [7]; hek293)	Ratio IC50 (Homo sapiens [13])	Ratio IC50 (Homo sapiens [14])	Activity (Melanocortin receptor 5 [15])
N=C(N)NCCC[C@@H]1NC(=O)[C@@H](Cc2ccccc2)NC(=O)[C@H](Cc2c[nH]cn2)NC(=O)C2(CCCCC2)NC(=O)CC[C@@H](C(N)=O)NC(=O)[C@H](Cc2c[nH]c3ccccc23)NC1=O	99 nM	57 nM	74 nM	4.1 nM	100%	> 1000 nM	120 nM	100%	630 nM	1.9 nM	100%	100%						
N=C(N)NCCC[C@@H]1NC(=O)[C@@H](Cc2ccccc2)NC(=O)[C@H](Cc2c[nH]cn2)NC(=O)C2(CCC2)NC(=O)C[C@@H](C(N)=O)NC(=O)[C@H](Cc2c[nH]c3ccccc23)NC1=O	> 1000 nM	60 nM	> 1000 nM	276 nM	100%	> 1000 nM	720 nM	43%	> 1000 nM		0%	100%	Not Active					
N=C(N)NCCC[C@@H]1NC(=O)[C@@H](Cc2ccccc2)NC(=O)[C@H](Cc2c[nH]cn2)NC(=O)C2(CCC2)NC(=O)CC[C@@H](C(N)=O)NC(=O)[C@H](Cc2c[nH]c3ccccc23)NC1=O ([Ac4c]H[dF]RWE-NH2; lactam N-6)	55 nM	25 nM	55 nM		100%	> 1000 nM	150 nM	75%	380 nM	2 nM	100%	100%				7	1	
N=C(N)NCCC[C@@H]1NC(=O)[C@@H](Cc2ccccc2)NC(=O)[C@H](Cc2c[nH]cn2)NC(=O)C2(CCCC2)NC(=O)C[C@@H](C(N)=O)NC(=O)[C@H](Cc2c[nH]c3ccccc23)NC1=O ([Ac5c]H[dF]RWD-NH2; lactam N-6)													Not Active					inactive
N=C(N)NCCC[C@@H]1NC(=O)[C@@H](Cc2ccccc2)NC(=O)[C@H](Cc2c[nH]cn2)NC(=O)C2(CCCC2)NC(=O)CC[C@@H](C(N)=O)NC(=O)[C@H](Cc2c[nH]c3ccccc23)NC1=O ([Ac5c]H[dF]RWE-NH2; lactam N-6)	93 nM		59 nM		100%	> 1000 nM	1000 nM	100%			0%	100%	Not Active					inactive
N=C(N)NCCC[C@@H]1NC(=O)[C@@H](Cc2ccccc2)NC(=O)[C@H](Cc2c[nH]cn2)NC(=O)C2(CCCCC2)NC(=O)C[C@@H](C(N)=O)NC(=O)[C@H](Cc2c[nH]c3ccccc23)NC1=O ([Ac6c]H[dF]RWD-NH2; lactam N-6)													Not Active					
CC1(C)NC(=O)C[C@@H](C(N)=O)NC(=O)[C@H](Cc2c[nH]c3ccccc23)NC(=O)[C@H](CCCNC(=N)N)NC(=O)[C@@H](Cc2ccc3ccccc3c2)NC(=O)[C@H](Cc2c[nH]cn2)NC1=O ([Aib]H[d2Nal]RWD-NH2; lactam N-6)	180 nM	67 nM		73 nM	83%	44 nM	6.7 nM	100%	165 nM	18 nM	24%	100%						
CC1(C)NC(=O)CC[C@@H](C(N)=O)NC(=O)[C@H](Cc2c[nH]c3ccccc23)NC(=O)[C@H](CCCNC(=N)N)NC(=O)[C@@H](Cc2ccc3ccccc3c2)NC(=O)[C@H](Cc2c[nH]cn2)NC1=O ([Aib]H[d2Nal]RWE-NH2; lactam N-6)													Not Active					
CC1(C)NC(=O)C[C@@H](C(N)=O)NC(=O)[C@H](Cc2c[nH]c3ccccc23)NC(=O)[C@H](CCCNC(=N)N)NC(=O)[C@@H](Cc2ccccc2)NC(=O)[C@H](Cc2c[nH]cn2)NC1=O ([Aib]H[dF]RWD-NH2; lactam N-6)	601 nM	87 nM		76 nM	100%	5.2 nM	6.7 nM	100%	> 1000 nM	140 nM	100%	100%						

Second part, the compound after the results:

IC50 [1]	EC50 [2]	IC50 (Melanocortin receptor 3 [3])	EC50 (Melanocortin receptor 3 [4]; read-out: EC50)	max activation (Melanocortin receptor 3 [5])	IC50 (Melanocortin receptor 4 [6])	EC50 (Melanocortin receptor 4 [7]; read-out: EC50)	max activation (Melanocortin receptor 4 [8])	IC50 (Melanocortin receptor 5 [9])	EC50 (Melanocortin receptor 5 [10]; read-out: EC50)	max activation (Melanocortin receptor 5 [11])	max activation [12]	EC50 (Melanocortin receptor 5 [10]; hek293)	EC50 (Melanocortin receptor 3 [4]; hek293)	EC50 (Melanocortin receptor 4 [7]; hek293)	Ratio IC50 (Homo sapiens [13])	Ratio IC50 (Homo sapiens [14])	Activity (Melanocortin receptor 5 [15])	SMILES
140 nM	16 nM	3.9 nM	76 nM	60%	81 nM	3.2 nM	67%	> 1000 nM	170 nM	100%	100%							N=C(N)NCCC[C@@H]1NC(=O)[C@@H](Cc2ccc3ccccc3c2)NC(=O)[C@H](Cc2c[nH]cn2)NC(=O)C2(CCCCC2)NC(=O)C[C@@H](C(N)=O)NC(=O)[C@H](Cc2c[nH]c3ccccc23)NC1=O
112 nM	48 nM	5.1 nM	3.2 nM	50%	320 nM	270 nM	70%	> 1000 nM	560 nM	100%	100%							N=C(N)NCCC[C@@H]1NC(=O)[C@@H](Cc2ccc3ccccc3c2)NC(=O)[C@H](Cc2c[nH]cn2)NC(=O)C2(CCC2)NC(=O)C[C@@H](C(N)=O)NC(=O)[C@H](Cc2c[nH]c3ccccc23)NC1=O
290 nM	14 nM	16 nM	1.9 nM	42%	73 nM	110 nM	67%	160 nM	96 nM	100%	100%							N=C(N)NCCC[C@@H]1NC(=O)[C@@H](Cc2ccc3ccccc3c2)NC(=O)[C@H](Cc2c[nH]cn2)NC(=O)C2(CCCC2)NC(=O)C[C@@H](C(N)=O)NC(=O)[C@H](Cc2c[nH]c3ccccc23)NC1=O
												Not Active	Not Active	Not Active				N=C(N)NCCC[C@@H]1NC(=O)[C@@H](Cc2ccc3ccccc3c2)NC(=O)[C@H](Cc2c[nH]cn2)NC(=O)C2(CCC2)NC(=O)CC[C@@H](C(N)=O)NC(=O)[C@H](Cc2c[nH]c3ccccc23)NC1=O ([Ac4c]H[d2Nal]RWE-NH2; lactam N-6)
43 nM	108 nM			82%	100 nM	130 nM	74%	> 1000 nM		0%	100%	Not Active						N=C(N)NCCC[C@@H]1NC(=O)[C@@H](Cc2ccc3ccccc3c2)NC(=O)[C@H](Cc2c[nH]cn2)NC(=O)C2(CCCC2)NC(=O)CC[C@@H](C(N)=O)NC(=O)[C@H](Cc2c[nH]c3ccccc23)NC1=O ([Ac5c]H[d2Nal]RWE-NH2; lactam N-6)
												Not Active	Not Active	Not Active				N=C(N)NCCC[C@@H]1NC(=O)[C@@H](Cc2ccc3ccccc3c2)NC(=O)[C@H](Cc2c[nH]cn2)NC(=O)C2(CCCCC2)NC(=O)CC[C@@H](C(N)=O)NC(=O)[C@H](Cc2c[nH]c3ccccc23)NC1=O ([Ac6c]H[d2Nal]RWE-NH2; lactam N-6)

Source: ChEMBL document CHEMBL4177763, “Development of Macrocyclic Peptidomimetics Containing Constrained α,α-Dialkylated Amino Acids with Potent and Selective Activity at Human Melanocortin Receptors” (J Med Chem, 2018)
